Molecular target: T1, Androgen receptor (Homo sapiens) (UniProt P10275)
T1 sequence (whole entry): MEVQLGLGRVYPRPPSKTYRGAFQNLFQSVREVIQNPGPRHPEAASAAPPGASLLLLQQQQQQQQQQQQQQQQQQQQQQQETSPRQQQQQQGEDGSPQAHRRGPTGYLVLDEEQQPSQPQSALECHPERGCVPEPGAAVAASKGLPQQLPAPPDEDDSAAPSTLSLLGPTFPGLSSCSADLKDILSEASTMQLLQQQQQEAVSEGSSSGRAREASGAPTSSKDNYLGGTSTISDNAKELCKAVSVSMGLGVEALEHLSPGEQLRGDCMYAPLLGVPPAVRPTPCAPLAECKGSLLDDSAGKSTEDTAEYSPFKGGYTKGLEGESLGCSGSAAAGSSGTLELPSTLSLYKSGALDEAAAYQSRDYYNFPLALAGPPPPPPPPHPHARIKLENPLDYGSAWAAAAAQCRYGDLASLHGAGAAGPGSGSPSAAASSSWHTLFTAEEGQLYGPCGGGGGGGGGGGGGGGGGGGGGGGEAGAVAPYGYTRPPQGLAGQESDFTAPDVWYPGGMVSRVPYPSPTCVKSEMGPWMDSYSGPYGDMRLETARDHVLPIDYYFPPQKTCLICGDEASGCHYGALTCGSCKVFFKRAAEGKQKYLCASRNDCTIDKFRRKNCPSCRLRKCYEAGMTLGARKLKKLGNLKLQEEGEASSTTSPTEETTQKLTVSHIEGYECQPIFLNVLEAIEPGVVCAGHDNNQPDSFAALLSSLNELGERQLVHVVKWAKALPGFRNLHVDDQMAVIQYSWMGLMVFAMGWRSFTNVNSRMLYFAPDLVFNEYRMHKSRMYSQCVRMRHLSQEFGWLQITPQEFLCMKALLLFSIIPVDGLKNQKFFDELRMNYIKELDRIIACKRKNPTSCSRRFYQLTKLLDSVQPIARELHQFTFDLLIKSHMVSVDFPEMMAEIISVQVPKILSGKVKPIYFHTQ
Settings: CV-1
Description: Relative stimulatory activity compared to 5-alpha-DHT in CV-1 cells expressing androgen receptor

`CC12CC[C@H]3[C@@H]([C@H](F)CC4CC(=O)CCC43C)[C@@H]1CCC2O` (some centres undefined) showed an RSA of 60.
Work on `CC12CC[C@@H]3C4CCC(=O)CC4C[C@@H](I)[C@H]3[C@@H]1CCC2O` (some centres undefined) yielded an RSA of 13.
`CC12CC[C@@H]3C4CCC(=O)CC4C[C@@H](I)[C@H]3[C@@H]1CC[C@]2(C)O` (some centres undefined) gave an RSA of 8.
For `CC12CC[C@@H]3C4CCC(=O)CC4C[C@@H](F)[C@H]3[C@@H]1CC[C@]2(C)O` (some centres undefined), the RSA was 16.
